{"source": "paper PMC7914897", "about": "“Cytotoxic Potential of a-Azepano- and 3-Amino-3,4-SeCo-Triterpenoids” (International Journal of Molecular Sciences, 2021)", "key": {"Ovarian Cancer subpanel": {"test_system": "Ovarian Cancer subpanel", "assay": "NCI-60 screen, subpanel", "settings": "Homo sapiens"}, "HOP-62 (NSC lung cancer)": {"test_system": "HOP-62 (NSC lung cancer)", "assay": "NCI-60 screen (SRB, 48 h)", "settings": "Homo sapiens"}, "A498 (Renal cancer)": {"test_system": "A498 (Renal cancer)", "assay": "NCI-60 screen (SRB, 48 h)", "settings": "Homo sapiens"}, "[1]": {"test_system": "NCI-H522 (NSC lung cancer)", "assay": "NCI-60 screen (SRB, 48 h)", "settings": "Homo sapiens"}, "TK-10 (Renal cancer)": {"test_system": "TK-10 (Renal cancer)", "assay": "NCI-60 screen (SRB, 48 h)", "settings": "Homo sapiens"}, "SNB-75 (CNS cancer)": {"test_system": "SNB-75 (CNS cancer)", "assay": "NCI-60 screen (SRB, 48 h)", "settings": "Homo sapiens"}, "[2]": {"test_system": "HT29 (colorectal carcinoma)", "assay": "SRB cytotoxicity assay, 72 h", "format": "cell-based, human", "settings": "Homo sapiens, HT-29; HT29, 72 h, cut-off 30 µM; read-out: EC50", "description": "(§1) The cytotoxicity of compounds 1–20 was evaluated by means of a colorimetric sulforhodamine B (SRB) assay. For all compounds, the EC50 values were determined for the human tumor cell lines A375 (malignant melanoma), HT29 (colorectal carcinoma), MCF-7 (breast carcinoma), A2780 (ovarian carcinoma), FaDu (hypopharyngeal carcinoma), and NIH 3T3 (non-malignant mouse fibroblasts).\n(§2) In short, exponentially growing cells were seeded into 96-well plates on day 0 at the appropriate cell densities to prevent confluence of the cells during the period of experiment. After 24 h, the cells were treated with serial dilutions of the compounds (0–30 µM) for 72 h. The final concentration of DMSO never exceeded 0.5%, which was non-toxic to the cells. After a 72 h treatment, the supernatant medium from the 96-well plates was discarded, and the cells were fixed with 10% TCA. For a thorough fixation, the plates were allowed to rest at 4 °C. After fixation, the cells were washed in a strip washer. The washing was done four times with water using alternate dispensing and aspiration procedures. The plates were then dyed with 100 µL of 0.4% SRB for about 20 min. After dying, the plates were washed with 1% acetic acid to remove the excess of the dye and allowed to air-dry overnight. Tris base solution (200 µL, 10 mM) was added to each well and absorbance was measured at λ = 570 nm (using a 96 well plate reader, Tecan Spectra, Crailsheim, Germany). The percentages of surviving cells relative to untreated controls were determined."}, "[3]": {"test_system": "A2780 (ovarian carcinoma)", "assay": "SRB cytotoxicity assay, 72 h", "format": "cell-based, human", "settings": "Homo sapiens; A2780, 72 h, cut-off 30 µM; read-out: EC50", "description": "as §1, §2"}, "MCF-7 (breast carcinoma)": {"test_system": "MCF-7 (breast carcinoma)", "assay": "SRB cytotoxicity assay, 72 h", "format": "cell-based, human", "settings": "Homo sapiens, MCF7; MCF-7, 72 h, cut-off 30 µM; read-out: EC50", "description": "as §1, §2"}, "[4]": {"test_system": "FaDu (hypopharyngeal carcinoma)", "assay": "SRB cytotoxicity assay, 72 h", "format": "cell-based, human", "settings": "Homo sapiens, cut-off 30 µM, read-out: EC50", "description": "as §1, §2"}, "[5]": {"test_system": "A375 (malignant melanoma)", "assay": "SRB cytotoxicity assay, 72 h", "format": "cell-based, human", "settings": "Homo sapiens, A-375, 72 h, A375, 72 h, cut-off 30 µM; read-out: EC50", "description": "as §1, §2"}, "Melanoma subpanel": {"test_system": "Melanoma subpanel", "assay": "NCI-60 screen, subpanel", "settings": "Homo sapiens"}, "HCT-116 (Colon cancer)": {"test_system": "HCT-116 (Colon cancer)", "assay": "NCI-60 screen (SRB, 48 h)", "settings": "Homo sapiens"}, "[6]": {"test_system": "A549/ATCC (NSC lung cancer)", "assay": "NCI-60 screen (SRB, 48 h)", "settings": "Homo sapiens"}, "SF-268 (CNS cancer)": {"test_system": "SF-268 (CNS cancer)", "assay": "NCI-60 screen (SRB, 48 h)", "settings": "Homo sapiens"}, "DU-145 (Prostate cancer)": {"test_system": "DU-145 (Prostate cancer)", "assay": "NCI-60 screen (SRB, 48 h)", "settings": "Homo sapiens"}, "ACHN (Renal cancer)": {"test_system": "ACHN (Renal cancer)", "assay": "NCI-60 screen (SRB, 48 h)", "settings": "Homo sapiens"}, "HT29 (Colon cancer)": {"test_system": "HT29 (Colon cancer)", "assay": "NCI-60 screen (SRB, 48 h)", "settings": "Homo sapiens"}, "786-0 (Renal cancer)": {"test_system": "786-0 (Renal cancer)", "assay": "NCI-60 screen (SRB, 48 h)", "settings": "Homo sapiens"}, "[7]": {"test_system": "NIH 3T3 (non-malignant mouse fibroblasts)", "assay": "SRB cytotoxicity assay, 72 h", "format": "cell-based", "settings": "Mus musculus, NIH3T3; NIH 3T3, 72 h, cut-off 30 µM; read-out: EC50", "description": "as §1, §2"}, "T-47D (Breast cancer)": {"test_system": "T-47D (Breast cancer)", "assay": "NCI-60 screen (SRB, 48 h)", "settings": "Homo sapiens, T47D"}, "UACC-62 (Melanoma)": {"test_system": "UACC-62 (Melanoma)", "assay": "NCI-60 screen (SRB, 48 h)", "settings": "Homo sapiens"}, "SW-620 (Colon cancer)": {"test_system": "SW-620 (Colon cancer)", "assay": "NCI-60 screen (SRB, 48 h)", "settings": "Homo sapiens"}}}
{"smiles": "CC(C)=C1CCC=C2CC[C@]3(C)[C@H](CC[C@@H]4[C@@]5(C)CCCNC(C)(C)[C@@H]5CC[C@]43C)[C@H]21", "note": "[Compound 9]", "values": [{"measurement": "IC (TGI)", "setting": "Ovarian Cancer subpanel; 48 h, read-out: TGI MG_MID", "result": 3.51, "unit": "µM"}, {"measurement": "GI50", "setting": "Ovarian Cancer subpanel; read-out: GI50 MG_MID", "result": 1.86, "unit": "µM"}, {"measurement": "CC50", "setting": "Ovarian Cancer subpanel; read-out: LC50 MG_MID", "result": 6.19, "unit": "µM"}, {"measurement": "GI50", "setting": "HOP-62 (NSC lung cancer); HOP-62", "result": 1.7, "unit": "µM"}, {"measurement": "IC (TGI)", "setting": "HOP-62 (NSC lung cancer); HOP-62, 48 h, read-out: TGI", "result": 3.25, "unit": "µM"}, {"measurement": "GI50", "setting": "A498 (Renal cancer); A498", "result": 1.87, "unit": "µM"}, {"measurement": "IC (TGI)", "setting": "A498 (Renal cancer); A498, 48 h, read-out: TGI", "result": 3.6, "unit": "µM"}, {"measurement": "CC50", "setting": "A498 (Renal cancer); A498, read-out: LC50", "result": 6.93, "unit": "µM"}, {"measurement": "GI50", "setting": "[1]; NCI-H522", "result": 1.8, "unit": "µM"}, {"measurement": "IC (TGI)", "setting": "[1]; NCI-H522, 48 h, read-out: TGI", "result": 3.44, "unit": "µM"}, {"measurement": "GI50", "setting": "TK-10 (Renal cancer); TK-10", "result": 1.81, "unit": "µM"}, {"measurement": "IC (TGI)", "setting": "TK-10 (Renal cancer); TK-10, 48 h, read-out: TGI", "result": 3.37, "unit": "µM"}, {"measurement": "CC50", "setting": "TK-10 (Renal cancer); TK-10, read-out: LC50", "result": 6.3, "unit": "µM"}, {"measurement": "GI50", "setting": "SNB-75 (CNS cancer); SNB-75", "result": 1.98, "unit": "µM"}, {"measurement": "IC (TGI)", "setting": "SNB-75 (CNS cancer); SNB-75, 48 h, read-out: TGI", "result": 3.84, "unit": "µM"}, {"measurement": "CC50", "setting": "SNB-75 (CNS cancer); SNB-75, read-out: LC50", "result": 7.44, "unit": "µM"}, {"measurement": "EC50", "setting": "[2]", "result": "1.18 ± 0.1", "unit": "µM"}, {"measurement": "EC50", "setting": "[3]", "result": "2.19 ± 0.1", "unit": "µM"}, {"measurement": "EC50", "setting": "MCF-7 (breast carcinoma)", "result": 1.52, "unit": "µM"}, {"measurement": "EC50", "setting": "[4]", "result": "1.58 ± 0.2", "unit": "µM"}, {"measurement": "EC50", "setting": "[5]", "result": "1.71 ± 0.1", "unit": "µM"}, {"measurement": "IC (TGI)", "setting": "Melanoma subpanel; 48 h, read-out: TGI MG_MID", "result": 3.3, "unit": "µM"}, {"measurement": "GI50", "setting": "Melanoma subpanel; read-out: GI50 MG_MID", "result": 1.77, "unit": "µM"}, {"measurement": "CC50", "setting": "Melanoma subpanel; read-out: LC50 MG_MID", "result": 6.17, "unit": "µM"}, {"measurement": "GI50", "setting": "HCT-116 (Colon cancer); HCT-116", "result": 1.73, "unit": "µM"}, {"measurement": "IC (TGI)", "setting": "HCT-116 (Colon cancer); HCT-116, 48 h, read-out: TGI", "result": 3.31, "unit": "µM"}, {"measurement": "GI50", "setting": "[6]; A549", "result": 1.79, "unit": "µM"}, {"measurement": "IC (TGI)", "setting": "[6]; A549, 48 h, read-out: TGI", "result": 3.52, "unit": "µM"}, {"measurement": "GI50", "setting": "SF-268 (CNS cancer); SF-268", "result": 1.97, "unit": "µM"}, {"measurement": "IC (TGI)", "setting": "SF-268 (CNS cancer); SF-268, 48 h, read-out: TGI", "result": 3.71, "unit": "µM"}, {"measurement": "CC50", "setting": "SF-268 (CNS cancer); SF-268, read-out: LC50", "result": 6.98, "unit": "µM"}, {"measurement": "GI50", "setting": "DU-145 (Prostate cancer); DU-145", "result": 1.98, "unit": "µM"}, {"measurement": "IC (TGI)", "setting": "DU-145 (Prostate cancer); DU-145, 48 h, read-out: TGI", "result": 3.55, "unit": "µM"}, {"measurement": "CC50", "setting": "DU-145 (Prostate cancer); DU-145, read-out: LC50", "result": 6.38, "unit": "µM"}, {"measurement": "GI50", "setting": "ACHN (Renal cancer)", "result": 1.76, "unit": "µM"}, {"measurement": "IC (TGI)", "setting": "ACHN (Renal cancer); 48 h, read-out: TGI", "result": 3.14, "unit": "µM"}, {"measurement": "CC50", "setting": "ACHN (Renal cancer); read-out: LC50", "result": 5.62, "unit": "µM"}, {"measurement": "GI50", "setting": "HT29 (Colon cancer); HT-29", "result": 0.94, "unit": "µM"}, {"measurement": "IC (TGI)", "setting": "HT29 (Colon cancer); HT-29, 48 h, read-out: TGI", "result": 2.31, "unit": "µM"}, {"measurement": "GI50", "setting": "786-0 (Renal cancer); 786-0", "result": 1.71, "unit": "µM"}, {"measurement": "IC (TGI)", "setting": "786-0 (Renal cancer); 786-0, 48 h, read-out: TGI", "result": 3.48, "unit": "µM"}, {"measurement": "EC50", "setting": "[7]", "result": "2.65 ± 0.5", "unit": "µM"}, {"measurement": "GI50", "setting": "T-47D (Breast cancer)", "result": 1.63, "unit": "µM"}, {"measurement": "IC (TGI)", "setting": "T-47D (Breast cancer); 48 h, read-out: TGI", "result": 3.46, "unit": "µM"}, {"measurement": "GI50", "setting": "UACC-62 (Melanoma); UACC-62", "result": 1.77, "unit": "µM"}, {"measurement": "IC (TGI)", "setting": "UACC-62 (Melanoma); UACC-62, 48 h, read-out: TGI", "result": 3.22, "unit": "µM"}, {"measurement": "CC50", "setting": "UACC-62 (Melanoma); UACC-62, read-out: LC50", "result": 5.85, "unit": "µM"}, {"measurement": "GI50", "setting": "SW-620 (Colon cancer); SW-620", "result": 1.66, "unit": "µM"}, {"measurement": "IC (TGI)", "setting": "SW-620 (Colon cancer); SW-620, 48 h, read-out: TGI", "result": 3.23, "unit": "µM"}]}
